Source: US20070082872A1, “Indole-containing compounds with anti-tubulin and vascular targeting activity” (priority 1999, published 2007)

Experiments:
MDA-MB-231 cells = test: Tumor growth control in vivo, MDA-MB-231 human breast adenocarcinoma model; settings: SCID mice, 25, 50 or 100 mg/kg daily i.p. for 5 consecutive days; effective dose printed as X mg/kg
Protocol: The antitumor activity of indole phosphate prodrug, Oxi-8007, was assessed in tumor-bearing mice by measuring its effects on tumor volume. A human breast adenocarcinoma model was established by subcutaneous injection of cultured MDA-MB-231 cells in Fox Chase CB-17 SCID mice. When the average tumor size reached 50-100 mm^3, mice were randomly divided into several groups (n=10) with no significant difference in body weight and tumor size. Mice were administered Oxi-8007 in saline carrier at doses of 25, 50 or 100 mg/kg by daily intraperitoneal (i.p.) injection for 5 consecutive days (Q1×5). Saline carrier only was used as the control treatment. On Day 3, 7, 10, 13, 17 and 23, tumors were excised from animals in each treatment group (n=2) and measured by width and length. Tumor volume was calculated according to the following formula: Length×Width^2×0.4. The dosage effects of Oxi-com 197 is illustrated in FIG. 15.

SF-295 (CNS) = test: In vitro growth inhibition (SRB), SF-295; type: cell-based, human; settings: 48 hours incubation
Protocol: (§1) Newly prepared compounds were evaluated for cytotoxic activity against a variety of cell lines derived from human tumors using an assay system similar to the National Cancer Institute procedure previously described (Monks et al, J. Natl. Cancer Inst., 1991). Briefly, the cell suspensions, diluted according to the particular cell type and the expected target cell density (5,000-40,000 cells per well based on cell growth characteristics), were added by pipet (100 μl) to 96-well microtiter plates. Inoculates were allowed a preincubation time of 24-28 hours at 37° C. for stabilization. Incubation with the inhibitor compounds lasted for 48 hours in 5% CO2 atmosphere and 100% humidity. Determination of cell growth was performed by in situ fixation of cells, followed by staining with a protein-binding dye sulforhodamine B (SRB), which binds to the basic amino acids of cellular macromolecules. The solubilized stain was measured spectrophotometrically.
(§2) Several compounds were evaluated for cytotoxic activity against […] P388 leukemia cell lines. […] These and additional compounds were evaluated in terms of growth inhibitory activity against several other […] cancer cell lines including: central nervous system (“CNS”, SF-295), pancreas (BXPC-3), non-small cell lung cancer (“lung-NSC”, NCI-H460), breast (MCF-7), colon (KM20L2), ovarian (OVCAR-3), and prostate (DU-145). […]

KM20L2 (colon) = test: In vitro growth inhibition (SRB), KM20L2; type: cell-based, human; settings: 48 hours incubation
Protocol: as §1, §2

BXPC-3 (pancreas) = test: In vitro growth inhibition (SRB), BXPC-3; type: cell-based, human; settings: 48 hours incubation
Protocol: as §1, §2

MCF-7 (breast) = test: In vitro growth inhibition (SRB), MCF-7; type: cell-based, human; settings: 48 hours incubation
Protocol: as §1, §2

[1] = tested on: MHEC-5T hemangioendothelioma tumor; test: Inhibition of tumor blood flow, Fluorescent Bead Assay; type: in vivo, mice; settings: for % VAPM (vessel area per tumor tissue area as a percentage of the control): single i.p. injection, 24 hours post-treatment
Protocol: The antivascular effects of the indole phosphate prodrug Oxi-8007, was assessed in tumor-bearing mice using a Fluorescent Bead Assay. A MHEC-5T hemangioendothelioma tumor model was established by subcutaneous injection of 0.5×10^6 cultured transformed cell murine myocardial vascular endothelial cell line (“MHEC5-T”) cells into the right flank of Fox Chase CB-17 Severe Combined Immunodeficient (“SCID”) mice. When transplanted tumors reached a size of 500 mm^3 (a size without development of necrosis), the mice received a single intraperitoneal (i.p.) injection of saline control or compound at doses ranging from 3.2 to 25 mg/kg. At 24 hours post-treatment, mice were injected intravenously with 0.25 ml of diluted FluoSphere beads (1:6 in physiological saline) in the tail vein, sacrificed after 3 minutes, and tumor was excised for cryosectioning. Tumor cryosections at a thickness of 8 um were directly examined using quantitative fluorescent microscopy. Blood vessels were indicated by blue fluorescence from injected beads. For quantification, image analysis of 3 sections from three tumors treated in each group were examined and vascular shutdown was expressed as vessel area (mm^2) per tumor tissue area (mm^2) as a percentage of the control (“%VAPM”). The results as shown in Table 4 indicate a clear dose-dependent effect of the agent on tumor blood flow as indicated by the reduction in blood vessel area at 24 hours following administration of Oxi8007. Administration of a dose of 100 mg/kg of Oxi-8007 or higher was particularly effective, causing a >98% reduction in tumor vessel volume relative to the control. A time-course of the effect of OX08007 on tumor blood flow is illustrated in FIG. 14.
Additional compounds of the present invention were tested for antivascular effects at two dosages (100 mg/kg and 10 mg/kg) using the same Fluorescent Bead Assay as in the previous experiment.

NCI-H460 (lung-NSC) = test: In vitro growth inhibition (SRB), NCI-H460; type: cell-based, human; settings: 48 hours incubation
Protocol: as §1, §2

DU-145 (prostate) = test: In vitro growth inhibition (SRB), DU-145; type: cell-based, human; settings: 48 hours incubation
Protocol: as §1, §2

COc1ccc2c(C(=O)c3cc(OC)c(OC)c(OC)c3)c(-c3ccc(OC)c(OP(=O)([O-])[O-])c3)[nH]c2c1.[Na+].[Na+] [Oxi-8007, 2-(3′-Disodiumphosphate-4′-methoxyphenyl)-3-(3″,4″,5″-trimethoxybenzoyl)-6-methoxyindole]
tumor growth (tumor volume) relative to control treatment (MDA-MB-231 cells): significantly inhibited tumor growth | GI50 for Cell Line SF-295 (SF-295 (CNS)): 5.5 ng/mL | GI50 for Cell Line KM20L2 (KM20L2 (colon)): 4.3 ng/mL | GI50 for Cell Line BXPC-3 (BXPC-3 (pancreas)): 46 ng/mL | GI50 for Cell Line MCF-7 (MCF-7 (breast)): 2.3 ng/mL | % VAPM (vessel area per tumor tissue area as a percentage of the control) ([1]; 50 mg/kg): 52% | % VAPM (vessel area per tumor tissue area as a percentage of the control) ([1]; 100 mg/kg): 2% | % VAPM (vessel area per tumor tissue area as a percentage of the control) ([1]; 200 mg/kg): 1% | reduction in tumor vessel volume relative to the control ([1]; dose of 100 mg/kg or higher, 24 hours): > 98% | GI50 for Cell Line NCI-H460 (NCI-H460 (lung-NSC)): 2.7 ng/mL | GI50 for Cell Line DU-145 (DU-145 (prostate)): <1 ng/mL
